Source: US20030199671A1, “Binding molecules for Fc-region polypeptides” (priority 2001, published 2003)
Positions of bridges follow the written chain, without caps; N, C: chain ends. Residues, ends and D or L forms follow the SMILES beside them.

Key:
human IgG1 = target: T1, human IgG1 (Homo sapiens, UniProt P01857); format: binding
T1 construct: all human subtypes derived from myeloma patients; purchased Calbiochem 400120; host or cells: myeloma patients
Procedure, shortened: (§1)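 Steps: dilute IgG in PBST or TBST; incubate with immobilized peptide 1-1.5 h, RT; collect unbound by centrifugation; measure A280; wash three times; elute with 0.1 M sodium bicarbonate pH 8.5 and/or 0.1 M sodium citrate pH 4.0 for 30-60 min and quantitate.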

bovine IgG = format: binding
Procedure, shortened: (§2)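 Percent bound = control mass minus unbound mass, with unbound IgG read at A280 after 1–1.5 h room-temperature incubation with the peptide resin in PBST pH 7.2 or TBST pH 7.5. Bound IgG was eluted 30–60 min with 0.1 M citrate pH 4.0 and/or bicarbonate pH 8.5. Recovery is given as percent of total load.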

mouse IgG = format: binding
Procedure, shortened: as §2

human IgG2 = target: T2, human IgG2 (Homo sapiens, UniProt P01859); format: binding
T2 construct: all human subtypes derived from myeloma patients; purchased Calbiochem 400122; host or cells: myeloma patients
T2 sequence (P01859 1-326 isoform P01859-1): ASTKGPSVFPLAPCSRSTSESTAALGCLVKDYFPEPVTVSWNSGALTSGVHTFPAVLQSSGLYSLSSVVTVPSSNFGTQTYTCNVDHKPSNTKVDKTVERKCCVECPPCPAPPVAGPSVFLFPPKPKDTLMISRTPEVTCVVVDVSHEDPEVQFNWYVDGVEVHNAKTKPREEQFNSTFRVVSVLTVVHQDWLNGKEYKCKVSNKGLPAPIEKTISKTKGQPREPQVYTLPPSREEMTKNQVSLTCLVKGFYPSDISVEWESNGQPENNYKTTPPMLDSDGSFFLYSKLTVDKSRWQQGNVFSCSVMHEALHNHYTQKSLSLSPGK
Procedure, shortened: (§3)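 Read-out is A280 of unbound IgG (1.4 mg/ml extinction coefficient), with percent bound derived against non-filtered or negative controls. Targets were incubated with immobilized peptides in PBST or TBST for 1-1.5 h at room temperature. Hydrolyzed Sepharose and immobilized Protein A serve as negative and positive controls.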

human IgG [1] = format: binding
Procedure, shortened: as §2

goat IgG = format: binding
Procedure, shortened: as §2

human IgG [2] = assay: Dynamic (mini-column) binding capacity
Method: These media were used to determine the effect of ligand density on human IgG binding capacity in both static (filterplate) and dynamic (mini-column) modes with commercial immobilized recombinant Protein A (Repligen, IPA400) at a single density as control.
The IgG solution was loaded onto the column at a flow rate of 0.2 ml/minute (170 cm/hr). […] At the end of the loading period, the column was washed with PBS until the absorbance at 280 nm of the column eluant returned to baseline. […] Neutralizing the pH of the eluted fractions was unnecessary since the total IgG eluted was determined by total protein absorbance at 280 nm.
To establish total media capacities, IgG was loaded onto the columns until the absorbances of the column load and flow through streams were identical (loading to full capacity). After washing the column to baseline, bound IgG was eluted and the total amount captured from this elution fraction determined. The total capacity of the media (mg IgG/ml media) as total IgG captured divided by the column bed volume was calculated.
Additionally, column capacities at 10% breakthrough were calculated from the online A280 measurements of column flowthrough streams. The A280 curves obtained for the column of interest and for an equivalent “blank” column containing hydrolyzed Sepharose FF 4 media were aligned. The difference in areas between these curves (for a retained and non-retained target) from the time of injection to the time at which the A280 value for the column of interest had risen to 10% of the maximum A280 absorbance (100%) obtained for the load solution at 100% IgG capture saturation (10% breakthrough) was graphically integrated. A standard curve was used to relate the integrated area to mg IgG bound and capacity calculated as total IgG bound divided by column bed volume.

IgG4 = IgG4 (Homo sapiens, UniProt P01861); format: binding; set-up: all human subtypes derived from myeloma patients; purchased Calbiochem 400126; host or cells: myeloma patients
Sequence of IgG4 (P01861 1-327 isoform P01861-1): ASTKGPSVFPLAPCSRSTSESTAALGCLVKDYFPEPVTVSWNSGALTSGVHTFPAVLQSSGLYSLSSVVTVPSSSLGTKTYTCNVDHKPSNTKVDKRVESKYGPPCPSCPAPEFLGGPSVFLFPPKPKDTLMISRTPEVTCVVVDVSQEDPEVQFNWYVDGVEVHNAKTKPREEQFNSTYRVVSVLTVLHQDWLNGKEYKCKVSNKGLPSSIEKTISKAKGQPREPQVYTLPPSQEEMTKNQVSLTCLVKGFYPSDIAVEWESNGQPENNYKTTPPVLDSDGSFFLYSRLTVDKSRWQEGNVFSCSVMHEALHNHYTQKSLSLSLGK
Procedure, shortened: as §3

IgG3 = IgG3 (Homo sapiens, UniProt P01860); format: binding; set-up: all human subtypes derived from myeloma patients; purchased Calbiochem 400124; host or cells: myeloma patients
Sequence of IgG3 (P01860 1-377 isoform P01860-1): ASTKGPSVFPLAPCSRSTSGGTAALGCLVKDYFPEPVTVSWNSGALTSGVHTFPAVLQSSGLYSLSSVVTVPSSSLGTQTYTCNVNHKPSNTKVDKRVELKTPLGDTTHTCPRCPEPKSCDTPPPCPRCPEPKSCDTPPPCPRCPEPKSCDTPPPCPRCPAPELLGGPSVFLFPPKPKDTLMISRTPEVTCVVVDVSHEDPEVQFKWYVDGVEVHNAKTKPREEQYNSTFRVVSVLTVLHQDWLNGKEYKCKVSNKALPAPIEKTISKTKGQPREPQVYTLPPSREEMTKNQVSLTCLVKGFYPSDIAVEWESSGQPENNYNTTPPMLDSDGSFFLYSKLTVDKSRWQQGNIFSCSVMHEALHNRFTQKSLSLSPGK
Procedure, shortened: as §1

[3] = Table 9, immobilized peptide, 5.0 mg/ml resin load
[4] = Table 10, elution 0.1 M sodium bicarbonate buffer, pH 8.5
[5] = Table 10, elution 0.1 M sodium citrate buffer, pH 4.0

T1 sequence (P01857 1-330 isoform P01857-1): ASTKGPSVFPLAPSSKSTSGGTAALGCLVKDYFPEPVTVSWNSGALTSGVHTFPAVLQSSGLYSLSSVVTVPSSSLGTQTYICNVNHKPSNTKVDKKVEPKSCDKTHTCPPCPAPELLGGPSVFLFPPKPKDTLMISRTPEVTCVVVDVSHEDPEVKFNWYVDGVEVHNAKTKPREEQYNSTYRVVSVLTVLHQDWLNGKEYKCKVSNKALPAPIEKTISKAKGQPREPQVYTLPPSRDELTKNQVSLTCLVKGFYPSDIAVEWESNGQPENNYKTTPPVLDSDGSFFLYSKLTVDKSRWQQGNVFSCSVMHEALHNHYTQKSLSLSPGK

For `CC[C@H](C)[C@@H]1NC(=O)[C@H](CC(C)C)NC(=O)[C@H](CCC(=O)O)NC(=O)CNC(=O)[C@H](Cc2c[nH]c3ccccc23)NC(=O)[C@H]([C@@H](C)O)NC(=O)[C@H]([C@@H](C)O)NC(=O)[C@H](Cc2ccc(O)cc2)NC(=O)[C@H](C(C)C)NC(=O)[C@@H](NC(=O)[C@H](CCSC)NC(=O)[C@H](Cc2c[nH]cn2)NC(=O)[C@H](CC(=O)O)NC(=O)[C@H](CC(=O)O)NC(=O)CNC(C)=O)CSSC[C@@H](C(=O)N[C@@H](CC(=O)O)C(=O)N[C@@H](CC(N)=O)C(=O)N[C@@H](Cc2c[nH]cn2)C(=O)N[C@@H](CCC(=O)O)C(=O)N2CCC[C@H]2C(=O)NCC(=O)N2CCC[C@H]2C(=O)N[C@@H](CCC(=O)O)C(=O)NCC(=O)NCC(=O)NCC(=O)N[C@@H](CCCCN)C(N)=O)NC(=O)[C@H](Cc2c[nH]c3ccccc23)NC1=O` [DX249] (Ac-GDDHMCVYTTWGELIWCDNHEPGPEGGGK-NH2; disulfide 6-17), the “% IgG Capture - Batch Binding, Human IgG1” value (human IgG1; [3]) was 91%, the “Human IgG1 bdg % (% of Total Load)” value (human IgG1; Table 10, batch binding) was 91% and the “Human IgG1 elu pH 8.5 (% of Total Load)” value (human IgG1; [4]) was 63%. The “Human IgG1 elu pH 4.0 (% of Total Load)” value (human IgG1; [5]) was 51%, the “hIgG1 elution pH 2.5 (% of Total Load)” value (human IgG1; Table 13) was 65% and the “hIgG1 elution pH 3.0 (% of Total Load)” value (human IgG1; Table 13) was 69%. The “hIgG1 elution pH 3.5 (% of Total Load)” value (human IgG1; Table 13) was 69%, the “hIgG1 elution pH 4.5 (% of Total Load)” value (human IgG1; Table 13) was 37% and the “hIgG1 elution pH 5.5 (% of Total Load)” value (human IgG1; Table 13) was 1%. The “hIgG1 elution pH 9.0 (% of Total Load)” value (human IgG1; Table 13) was 65%, the “hIgG1 elution pH 9.5 (% of Total Load)” value (human IgG1; Table 13) was 68% and the “% IgG Capture - Batch Binding, Bovine IgG” value (bovine IgG) was 0%. For the same molecule, the “% IgG Capture - Batch Binding, Mouse IgG” value (mouse IgG) was 0%, the “% IgG Capture - Batch Binding, Human IgG2” value (human IgG2; [3]) was 92% and the “Human IgG2 bdg % (% of Total Load)” value (human IgG2; Table 10, batch binding) was 92%. The “Human IgG2 elu pH 8.5 (% of Total Load)” value (human IgG2; [4]) was 54%, the “Human IgG2 elu pH 4.0 (% of Total Load)” value (human IgG2; [5]) was 63% and the “hIgG2 elution pH 2.5 (% of Total Load)” value (human IgG2; Table 13) was 71%. For the same molecule, the “hIgG2 elution pH 3.0 (% of Total Load)” value (human IgG2; Table 13) was 73%, the “hIgG2 elution pH 3.5 (% of Total Load)” value (human IgG2; Table 13) was 63% and the “hIgG2 elution pH 4.5 (% of Total Load)” value (human IgG2; Table 13) was 39%. The “hIgG2 elution pH 5.5 (% of Total Load)” value (human IgG2; Table 13) was 1%, the “hIgG2 elution pH 9.0 (% of Total Load)” value (human IgG2; Table 13) was 60% and the “hIgG2 elution pH 9.5 (% of Total Load)” value (human IgG2; Table 13) was 67%. For the same molecule, the “% IgG Capture - Batch Binding, Human IgG” value (human IgG [1]) was 84%, the “% IgG Capture - Batch Binding, Goat IgG” value (goat IgG) was 0% and the “Capacity (mg IgG/mL resin) 10% Breakthrough” value (human IgG [2]; Ligand Density 0.19 μM/mL) was 1.1 mg IgG/mL resin. For the same molecule, the “Capacity (mg IgG/mL resin) Total Dynamic” value (human IgG [2]; Ligand Density 0.19 μM/mL) was 1.2 mg IgG/mL resin, the “Capacity (mg IgG/mL resin) 10% Breakthrough” value (human IgG [2]; Ligand Density 0.86 μM/mL) was 4.4 mg IgG/mL resin and the “Capacity (mg IgG/mL resin) Total Dynamic” value (human IgG [2]; Ligand Density 0.86 μM/mL) was 8.4 mg IgG/mL resin. The “Capacity (mg IgG/mL resin) 10% Breakthrough” value (human IgG [2]; Ligand Density 1.63 μM/mL) was 5.9 mg IgG/mL resin, the “Capacity (mg IgG/mL resin) Total Dynamic” value (human IgG [2]; Ligand Density 1.63 μM/mL) was 10.3 mg IgG/mL resin and the “Capacity (mg IgG/mL resin) 10% Breakthrough” value (human IgG [2]; Ligand Density 3.20 μM/mL) was 5.5 mg IgG/mL resin. The “Capacity (mg IgG/mL resin) Total Dynamic” value (human IgG [2]; Ligand Density 3.20 μM/mL) was 16.4 mg IgG/mL resin, the “Dynamic Cap.” value (human IgG [2]; Table 18, total dynamic capacity, average ligand density 1.9 μmole/ml) was 13 mg/mL and the “% IgG Capture - Batch Binding, Human IgG4” value (IgG4; [3]) was 82%. The “Human IgG4 bdg % (% of Total Load)” value (IgG4; Table 10, batch binding) was 82%, the “Human IgG4 elu pH 8.5 (% of Total Load)” value (IgG4; [4]) was 66% and the “Human IgG4 elu pH 4.0 (% of Total Load)” value (IgG4; [5]) was 54%. The “hIgG4 elution pH 2.5 (% of Total Load)” value (IgG4; Table 13) was 42%, the “hIgG4 elution pH 3.0 (% of Total Load)” value (IgG4; Table 13) was 43% and the “hIgG4 elution pH 3.5 (% of Total Load)” value (IgG4; Table 13) was 30%. For the same molecule, the “hIgG4 elution pH 4.5 (% of Total Load)” value (IgG4; Table 13) was 10%, the “hIgG4 elution pH 5.5 (% of Total Load)” value (IgG4; Table 13) was 4% and the “hIgG4 elution pH 9.0 (% of Total Load)” value (IgG4; Table 13) was 53%. For the same molecule, the “hIgG4 elution pH 9.5 (% of Total Load)” value (IgG4; Table 13) was 59%, the “% IgG Capture - Batch Binding, Human IgG3” value (IgG3; [3]) was 0% and the “Human IgG3 bdg % (% of Total Load)” value (IgG3; Table 10, batch binding) was 3%. For the same molecule, the “Human IgG3 elu pH 8.5 (% of Total Load)” value (IgG3; [4]) was 0%, the “Human IgG3 elu pH 4.0 (% of Total Load)” value (IgG3; [5]) was 0% and the “hIgG3 elution pH 2.5 (% of Total Load)” value (IgG3; Table 13) was 0%. For the same molecule, the “hIgG3 elution pH 3.0 (% of Total Load)” value (IgG3; Table 13) was 0%, the “hIgG3 elution pH 3.5 (% of Total Load)” value (IgG3; Table 13) was 0% and the “hIgG3 elution pH 4.5 (% of Total Load)” value (IgG3; Table 13) was 0%. The “hIgG3 elution pH 5.5 (% of Total Load)” value (IgG3; Table 13) was 0%, the “hIgG3 elution pH 9.0 (% of Total Load)” value (IgG3; Table 13) was 0% and the “hIgG3 elution pH 9.5 (% of Total Load)” value (IgG3; Table 13) was 0%.
